Experimental data: patent US20230338307A1, “PROPHYLACTIC AGENT, AMELIORATING AGENT, AND THERAPEUTIC AGENT FOR DRY EYE” (TSUBOTA LABORATORY, INC., priority 2020, published 2023)

Assays:
[1] = reported for dry eye treatment; cited from earlier work
dry eye model [2] = assay: Fluorescein staining score, 0.2% benzalkonium chloride dry eye model, Comparative Study 2 (Example 5); type: in vivo, mice; details: two days after start, compared with control; 0.03% apocynin, 0.5% (w/v) hyaluronic acid or 3% diquafosol sodium twice a day; FIG. 11A
Description: After acclimating male C57BL6 mice (7 weeks old) to the experimental environment, those with almost uniform weight values and no eye abnormalities were divided into the following groups (n=3 to 4). • 7 weeks old/normal (non-dry eye group) • 7 weeks old/dry eye model+control (solvent eye drop) group • 7 weeks old/dry eye model+0.003% (w/v) apocynin eye drop group • 7 weeks old/dry eye model+0.03% (w/v) apocynin eye drop group • 7 weeks old/dry eye model+3% diquafosol sodium eye drop group • 7 weeks old/dry eye model+0.5% (w/v) hyaluronic acid eye drop group A dry eye model was created by instilling 3 μL of the 0.2% benzalkonium chloride solution into each of both eyes twice a day for 8 days. Then, the control group received PBS alone, and the test group received 0.003% (w/v), 0.03% (w/v) apocynin and 0.5% (w/v) hyaluronic acid in PBS. The 3% diquafosol sodium eye drop was instilled into each of both eyes at 3 μL, twice a day for 9 days. In Example 5, 1, 2, 5, and 9 days after the start of instillation of the comparative test drug, 1 μL of 0.1% sodium fluorescein solution was instilled into each of both eyes. Fluorescein-stained images were observed under a blue filter using a slit lamp (Kowa Co., Ltd., SL-17), and the degree of corneal epithelial damage was scored.

dry eye model [3] = assay: Fluorescein staining score, benzalkonium chloride dry eye model, Comparative Study 1 (Example 4); type: in vivo, mice; details: 3 days after start of instillation, compared to control; 0.1% (w/v) apocynin or 0.5% (w/v) hyaluronic acid twice a day; FIG. 9A
Protocol: After acclimating male C57BL6 mice (7 weeks old) to the experimental environment, those with almost uniform weight values and no eye abnormalities were divided into the following groups (n=4). • 7 weeks old/normal (non-dry eye group) • 7 weeks old/dry eye model+control (solvent eye drop) group • 7 weeks old/dry eye model+0.1% (w/v) apocynin eye drop group • 7 weeks old/dry eye model+0.5% (w/v) hyaluronic acid eye drop group A dry eye model was prepared by instilling the benzalkonium chloride solution at 3 μL each eye, twice a day for 8 days. After that, the control group received the 0.5% methylcellulose solution alone, and the test group received 0.1% (w/v) apocynin or 0.5% (w/v) hyaluronic acid suspended in the 0.5% methylcellulose solution twice a day for 15 days at 3 μL for each of both eyes. In Example 4, 1, 3, 6, 8, and 15 days after the start of instillation of the comparative test drug, 1 μL of the 0.1% fluorescein sodium solution was instilled into each of both eyes. Fluorescein-stained images were observed under a blue filter using a slit lamp (Kowa Co., Ltd., SL-17), and the degree of corneal epithelial damage was scored.

Row | Compound | side effect specific to ingredients [1] | fluorescein staining score (corneal epithelial damage) (dry eye model [2]) | fluorescein staining score (corneal damage) (dry eye model [3])
1 | O=C(NC(Cc1cc(=O)[nH]c2ccccc12)C(=O)O)c1ccc(Cl)cc1 (centres unmarked) [rebamipide] | causes dysgeusia | – | –
2 | O=c1ccn([C@@H]2O[C@H](COP(=O)(O)OP(=O)(O)OP(=O)(O)OP(=O)(O)OC[C@H]3O[C@@H](n4ccc(=O)[nH]c4=O)[C@H](O)[C@@H]3O)[C@@H](O)[C@H]2O)c(=O)[nH]1 [diquafosol sodium, reference compound] | causes ocular discharge and eye pain | no effect was observed | –
3 | hyaluronic acid [reference compound] | – | no effect was observed | no effect was observed
